From patent publication US20180353505A1, “COMPATIBLE SOLUTE OR SOLUTE MIXTURE FOR USE IN THE PREVENTION OR TREATMENT OF DISEASES HAVING BARRIER DEFECTS IN EPITHELIAL TISSUES” (bitop AG, priority 2015, published 2018)
Values joined by “and” are separate entries in the source; they are usually repeats but may differ in a detail not shown here. Equal entries are not always repeated.

Assays:
[1] = system: epithelial cells of the oral mucosa (TR146); test: Allergy prevention assay (APA), OVA penetration, TR146 monolayer; format: cell-based, human; settings: TR146, OVA + 100 mM ectoine
Source text: (§1) The cell culture vessel (6) comprises an inner (7) and an outer (5) reservoir, wherein the two compartment are partitioned by a transparent ThinCerts membrane (5) having a pore size of 0.4 μm. This pore size allows for cytokine and protein movement between the outer and inner reservoir (FIG. 6.) Eukaryotic cells may not pass through this membrane thus forming a single-layered closed cell layer which covers the whole membrane. In doing so, an arrangement is achieved by the experimental setup which reflects the apical side (outer reservoir) and basolateral side (inner reservoir within the inset) of epithelial cells. However, allergens, such as e.g. ovalbumin (OVA), may pass the membrane without problems due to their low molecule size.
(§2) If a closed epithelial cell layer is present, OVA may only pass this membrane barrier through “gaps”, tight junction or transcytosis from the apical to the basolateral side. […]
(§3) The cells of the respective cell line (see Table 3) were cultivated on a membrane (3) (FIG. 6) until formation of a closed single-layered cell layer (2) (synonymously epithelial monolayer). […] Subsequently, the OVA content was measured in the inner and outer reservoir by means of OVA-specific ELISA and the relative penetration of the epithelial monolayer with OVA in pretreated and non-treated cells was determined.

[2] = system: human nasal mucosa epithelial cells (RPMI-2650); test: Allergy prevention assay (APA), OVA penetration, RPMI-2650 monolayer; format: cell-based
Source text: as §1, §2, §3

[3] = system: epithelial cells of the oral mucosa (TR146); test: TEER of TR146 monolayer after overnight incubation and 0.005% SDS stress (FIG. 3); format: cell-based, human; settings: then 0.005% SDS
Description: (§4) A defined strength (U) of a direct current (DC) is applied between two electrodes E1 and E2 for determination of TEER, wherein the single-layered cell layer (monolayer) is arranged between the two electrodes (FIG. 1), such that the applied direct current (DC) flows through the cells. The measurement of TEER is made by an epithelial voltmeter (EVOM2). The resulting current I is measured according to the ohmic resistance R, wherein R=U/I (Benson K, Cramer S, Galla H J (2013) Impedance-based cell monitoring: Barrier properties and beyond. FluidsBarriers, 10:5.). […]
(§5) The intact epithelial monolayer was respectively controlled by a TEER measurement. If no increase were measured in the TEER over two days, the epithelial cells have formed an intact epithelial monolayer having intact epithelial barrier (selective permeability barrier).
In order to subsequently measure the effect of ectoine on membrane stability under the influence of chemicals, an intact epithelial monolayer of epithelial cells of the oral mucosa (TR146) were incubated in cell culture medium with PBS (control), with 50 mM ectoine and with 0.1% lecithin (positive control) over night. Subsequently, stress treatment was made with 0.005% SDS and change of the transepithelial electric resistance [Ohm] was monitored hourly (FIG. 3).

[4] = system: porcine renal epithelial cells (LLC-PK1); test: TEER of LLC-PK1 monolayer after overnight incubation and BAK stress (FIG. 4); format: cell-based; settings: LLC-PK1, 50 mM ectoine over night, then BAK stress
Description: as §4, §5
Additionally, an intact epithelial monolayer of porcine renal epithelial cells (LLC-PK1) was also incubated in cell culture medium with PBS (control), with 50 mM ectoine and with 0.1% lecithin (positive control) over night. Subsequently, stress treatment was made with 0.001% BAK and change of the transepithelial electric resistance [Ohm] was monitored hourly (FIG. 4).

Claudin-1 = Claudin-1 expression in HaCaT monolayer after heat stress (ELISA); format: cell-based, human
Description: The HaCaT cell line was cultured in a plastic cell culture vessel until a closed single-layered cell layer (HaCaT monolayer) was formed. Subsequently, the monolayer was pretreated with 50 mM or 100 mM ectoine in cell culture medium for 6 hours (h). After pretreatment, temperature treatment of the cells was made at 44° C. for 30 min. After heat stress, the monolayer was again incubated in the incubator at 37° C. for 24 hours. Subsequently, the HaCaT monolayer was harvested and, after lysis by means of cryoshock (freezing, unfreezing and scraping with spatula), the lysate was analysed for Claudin-1 by means of ELISA.

[5] = system: human keratinocytes (HaCaT); test: Allergy prevention assay (APA), OVA penetration, HaCaT monolayer; format: cell-based; settings: OVA + 10 mM ectoine
Source text: as §1, §2, §3

[6] = system: rat bronchial epithelial cells (RLE); test: Allergy prevention assay (APA), OVA penetration, RLE monolayer; format: cell-based
Source text: as §1, §2, §3

[7] = system: human keratinocytes (HaCaT); test: TEER of HaCaT monolayer after overnight incubation and air drying (FIG. 5); format: cell-based; settings: preincubation with ectoine (50/100 mM), air drying 5 min at RT, rehydration, 24 h with OVA
Description: as §4, §5
In a further experiment, an intact epithelial monolayer of human keratinocytes (HaCaT) was also incubated in cell culture medium with PBS (control), with 50 mM ectoine and with 100 mM ectoine over night. […] After air drying at RT under sterile conditions, the cells were overlaid with medium including OVA allergen (250 μg/ml) and incubated at 37° C. in the incubator for 24 hours and subsequently the TEER value was measured.

[8] = system: epithelial cells of oral mucosa (TR146); test: TEER of TR146 monolayer after 12 h incubation, no stress (FIG. 2); format: cell-based, human
Description: A defined strength (U) of a direct current (DC) is applied between two electrodes E1 and E2 for determination of TEER, wherein the single-layered cell layer (monolayer) is arranged between the two electrodes (FIG. 1), such that the applied direct current (DC) flows through the cells. The measurement of TEER is made by an epithelial voltmeter (EVOM2). The resulting current I is measured according to the ohmic resistance R, wherein R=U/I (Benson K, Cramer S, Galla H J (2013) Impedance-based cell monitoring: Barrier properties and beyond. FluidsBarriers, 10:5.).
For this purpose, in in vitro experiments, epithelial tissues were sown on special cell culture carrier having a membrane (ThinCerts, pore size 0.4 μm) and cultured to a closed, single-layered cell layer (synonymously epithelial monolayer) on the membrane (FIG. 1).
as §5
In order to measure effects of ectoine on barrier function, in particular membrane integrity, TR146 cells of an intact epithelial monolayer were incubated in cell culture medium with PBS (control), with 50 mM ectoine and with 0.1% lecithin (positive control) for 12 hours (h).

HaCaT (drying stress) = test: Allergy prevention assay (APA) with drying stress, HaCaT monolayer; format: cell-based, human
Source text: as §1, §2
as §3, with “determined. […]” for “determined.”

[9] = system: rabbit corneal epithelial cells (SIRC); test: Allergy prevention assay (APA), OVA penetration, SIRC monolayer; format: cell-based
Source text: as §1
If a closed epithelial cell layer is present, OVA may only pass this membrane barrier through “gaps”, tight junction or transcytosis from the apical to the basolateral side. (Ding L, Zhang Y, Jiang Y, Wang L, Liu B, Liu J (2014) Transport of egg white ACE-Inhibitory peptide, Gln-Ile-Gly-Leu-Phe, in human intestinal Caco-2 cell monolayers with cytoprotective effect. J Agric Food Chem (Epub ahead of print)).
The cells of the respective cell line (see Table 3) were cultivated on a membrane (3) (FIG. 6) until formation of a closed single-layered cell layer (2) (synonymously epithelial monolayer). Subsequently, the epithelial monolayer was pretreated with ectoine (10, 50, 100 mM) in cell culture medium for 6 hours. After pretreatment with ectoine, the epithelia monolayer was incubated with 250 μg/ml of the allergen OVA (FIG. 6) over night. Subsequently, the OVA content was measured in the inner and outer reservoir by means of OVA-specific ELISA and the relative penetration of the epithelial monolayer with OVA in pretreated and non-treated cells was determined.

Molecule | Penetrations protection (as compared to PBS) [%] +/− SD [1] | Penetrations protection (as compared to PBS) [%] +/− SD ([2]; OVA + 10 mM ectoine) | Penetrations protection (as compared to PBS) [%] +/− SD ([2]; OVA + 100 mM ectoine) | TEER ([3]; TR146, 50 mM ectoine over night) | Effect on TEER / membrane stability [4] | Claudin-1 expression, factor over medium and PBS without ectoine (Claudin-1; 100 mM ectoine, 24 hours) | Claudin-1 expression [Claudin-1] +/− SD (Claudin-1; Ectoine 100 mM 6 h, 44° C. 30 min, 24 h at 37° C.) | Penetrations protection (as compared to PBS) [%] +/− SD [5] | Penetrations protection (as compared to PBS) [%] +/− SD ([6]; OVA + 50 mM ectoine) | Penetrations protection (as compared to PBS) [%] +/− SD ([6]; OVA + 100 mM ectoine) | TEER [7] | TEER value ([8]; TR146, 50 mM ectoine) | Penetrations protection (as compared to PBS) [%] +/− SD (HaCaT (drying stress); OVA + 50 mM ectoine) | Penetrations protection (as compared to PBS) [%] +/− SD (HaCaT (drying stress); OVA + 100 mM ectoine) | Penetrations protection (as compared to PBS) [%] +/− SD ([9]; OVA + 10 mM ectoine) | Penetrations protection (as compared to PBS) [%] +/− SD ([9]; OVA + 50 mM ectoine) | Penetrations protection (as compared to PBS) [%] +/− SD ([9]; OVA + 100 mM ectoine) | TEER ([3]; TR146, 0.1% lecithin over night) | TEER value ([8]; TR146, 0.1% lecithin (positive control))
CC1=NC(C(=O)O)CCN1 (stereo not shown) [ectoine, 1,4,5,6-tetrahydro-2-methyl-4-pyrimidine carboxylic acid] | 13.44 +/− 7.69% | 23.5 +/− 17.1% | up to 50% | 215 Ohm | stabilization of the membrane of epithelial cells LLC-PK1 is already achieved | 3 | 0.22 ng/ml +/− 0.006 | −0.61 +/− 0.1% | −6.3 +/−7.91^ % | −124.5 +/− 3.72% | approx. 180 Ohm | 215 Ohm | 12% and 8.1 +/− 8.01% | 11.6 +/− 6.25% | 0 +/− 11.52% | 16.3 +/− 2.31% | up to 50% |  | 
lecithin [reference compound] |  |  |  |  |  |  |  |  |  |  |  |  |  |  |  |  |  | 225 Ohm | 225 Ohm
